{
  "source": "patent US9278914B2",
  "about": "“SARMs and method of use thereof” (UNIVERSITY OF TENNESSEE RESEARCH FOUNDATION, priority 2004, dated 2016)",
  "data": [
    {"tested_on": "castrated male Sprague-Dawley rats", "test": "Anabolic and androgenic activity of SARM panel in castrated male rats, sc 1 mg/d for 14 d", "format": "in vivo, rat", "conditions": "1 mg/d sc 14 d", "procedure": "The in vivo pharmacological activity of each synthetic AR ligand (listed in Table 4, below) was examined in five male Sprague-Dawley rats weighing approximately 200 g. Animals were castrated via a scrotal incision under anesthesia 24 h before drug treatments and received daily sc injections of the compound of interest at a dose rate of 1 mg/d for 14 d. All compounds of interest were freshly dissolved in vehicle containing dimethylsulfoxide (5%, vol/vol) in polyethylene glycol 300 before dose administration. An additional two groups of animals with or without castration received vehicle only and served as castrated or intact control groups, respectively. Animals were killed at the end of the treatment. Plasma samples were collected and stored at −80° C. for future use. The ventral prostate, seminal vesicles, and levator ani muscle were removed, cleared of extraneous tissue, and weighed. All organ weights were normalized to body weight and compared. The weights of prostate and seminal vesicles were used to evaluate androgenic activity, whereas the levator ani muscle weight was used as a measure of anabolic activity. […] The results are graphically depicted in FIGS. 3 and 4.", "values": [
      {"smiles": "C[C@](O)(COc1ccc(F)cc1F)C(=O)Nc1ccc([N+](=O)[O-])c(C(F)(F)F)c1", "note": "[C-1]", "Levator ani agonism": "> 75 % of intact control", "Ventral prostate weight": "< 25 % of intact control"},
      {"smiles": "C[C@](O)(COc1ccc(F)c(F)c1)C(=O)Nc1ccc([N+](=O)[O-])c(C(F)(F)F)c1", "note": "[C-3]", "Levator ani weight versus intact control": "same as or in excess of intact control"},
      {"smiles": "C[C@](O)(COc1ccc(F)c(Cl)c1)C(=O)Nc1ccc([N+](=O)[O-])c(C(F)(F)F)c1", "note": "[C-4]", "Levator ani agonism": "> 75 % of intact control", "Ventral prostate weight": "< 25 % of intact control"},
      {"smiles": "C[C@](O)(COc1ccc(Cl)c(F)c1)C(=O)Nc1ccc([N+](=O)[O-])c(C(F)(F)F)c1", "note": "[C-6]", "Levator ani weight versus intact control": "same as or in excess of intact control"},
      {"smiles": "C[C@](O)(COc1ccc(Cl)cc1F)C(=O)Nc1ccc([N+](=O)[O-])c(C(F)(F)F)c1", "note": "[C-8]", "Levator ani weight versus intact control": "same as or in excess of intact control"},
      {"smiles": "C[C@](O)(COc1ccc(Cl)c(Cl)c1)C(=O)Nc1ccc([N+](=O)[O-])c(C(F)(F)F)c1", "note": "[C-10]", "Levator ani weight versus intact control": "same as or in excess of intact control"},
      {"smiles": "C[C@](O)(COc1ccc([N+](=O)[O-])c(F)c1)C(=O)Nc1ccc([N+](=O)[O-])c(C(F)(F)F)c1", "note": "[C-11]", "Levator ani weight versus intact control": "same as or in excess of intact control"},
      {"smiles": "C[C@](O)(COc1cc(F)c(F)cc1F)C(=O)Nc1ccc([N+](=O)[O-])c(C(F)(F)F)c1", "note": "[C-18]", "Levator ani weight versus intact control": "same as or in excess of intact control"},
      {"smiles": "C[C@](O)(COc1cc(Cl)c(Cl)cc1Cl)C(=O)Nc1ccc([N+](=O)[O-])c(C(F)(F)F)c1", "note": "[C-22]", "Levator ani agonism": "> 75 % of intact control", "Ventral prostate weight": "< 25 % of intact control"},
      {"smiles": "C[C@](O)(COc1c(F)c(F)c(F)c(F)c1F)C(=O)Nc1ccc([N+](=O)[O-])c(C(F)(F)F)c1", "note": "[C-23]", "Levator ani agonism": "> 75 % of intact control", "Ventral prostate weight": "< 25 % of intact control"},
      {"smiles": "C[C@](O)(COc1ccc(F)cc1)C(=O)Nc1ccc([N+](=O)[O-])c(C(F)(F)F)c1", "note": "[S-1]", "Levator ani agonism": "> 75 % of intact control", "Ventral prostate weight": "< 25 % of intact control"}
    ]}
  ]
}
